Key:
Test in all cases: biochemical
Type in all cases: binding
468 kinases [1] = biological target: 468 kinases (Homo sapiens, UniProt O00444); conditions: PLK4; read-out: % Inhibition @ 100 nM
468 kinases [2] = biological target: 468 kinases (Homo sapiens, UniProt O75116); conditions: ROCK2; read-out: % Inhibition @ 100 nM
468 kinases [3] = biological target: 468 kinases (Homo sapiens, UniProt O94804); conditions: LOK; read-out: % Inhibition @ 100 nM
468 kinases [4] = biological target: 468 kinases (Homo sapiens, UniProt P04626); conditions: ERBB2; read-out: % Inhibition @ 100 nM
468 kinases [5] = biological target: 468 kinases (Homo sapiens, UniProt P10721, D816V); conditions: KIT(D816V); read-out: % Inhibition @ 100 nM
468 kinases [6] = biological target: 468 kinases (Homo sapiens, UniProt P16234); conditions: PDGFRA; read-out: % Inhibition @ 100 nM
468 kinases [7] = biological target: 468 kinases (Homo sapiens, UniProt P21802); conditions: FGFR2; read-out: % Inhibition @ 100 nM
468 kinases [8] = biological target: 468 kinases (Homo sapiens, UniProt P48736); conditions: PIK3CG; read-out: % Inhibition @ 100 nM
468 kinases [9] = biological target: 468 kinases (Homo sapiens, UniProt P49674); conditions: CSNK1E; read-out: % Inhibition @ 100 nM
468 kinases [10] = biological target: 468 kinases (Homo sapiens, UniProt P49760); conditions: CLK2; read-out: % Inhibition @ 100 nM
468 kinases [11] = biological target: 468 kinases (Homo sapiens, UniProt P51451); conditions: BLK; read-out: % Inhibition @ 100 nM
468 kinases [12] = biological target: 468 kinases (Homo sapiens, UniProt P53667); conditions: LIMK1; read-out: % Inhibition @ 100 nM
468 kinases [13] = biological target: 468 kinases (Homo sapiens, UniProt P54753); conditions: EPHB3; read-out: % Inhibition @ 100 nM
468 kinases [14] = biological target: 468 kinases (Homo sapiens, UniProt Q00532); conditions: CDKL1; read-out: % Inhibition @ 100 nM
468 kinases [15] = biological target: 468 kinases (Homo sapiens, UniProt Q02763); conditions: TIE2; read-out: % Inhibition @ 100 nM
468 kinases [16] = biological target: 468 kinases (Homo sapiens, UniProt Q07002); conditions: PCTK3; read-out: % Inhibition @ 100 nM
468 kinases [17] = biological target: 468 kinases (Homo sapiens, UniProt Q07912); conditions: TNK2; read-out: % Inhibition @ 100 nM
468 kinases [18] = biological target: 468 kinases (Homo sapiens, UniProt Q13153); conditions: PAK1; read-out: % Inhibition @ 100 nM
468 kinases [19] = biological target: 468 kinases (Homo sapiens, UniProt Q13523); conditions: PRP4; read-out: % Inhibition @ 100 nM
468 kinases [20] = biological target: 468 kinases (Homo sapiens, UniProt Q13555); conditions: CAMK2G; read-out: % Inhibition @ 100 nM
468 kinases [21] = biological target: 468 kinases (Homo sapiens, UniProt Q15303); conditions: ERBB4; read-out: % Inhibition @ 100 nM
468 kinases [22] = biological target: 468 kinases (Homo sapiens, UniProt Q6ZWH5); conditions: NEK10; read-out: % Inhibition @ 100 nM
468 kinases [23] = biological target: 468 kinases (Homo sapiens, UniProt Q8WU08); conditions: YANK1; read-out: % Inhibition @ 100 nM
468 kinases [24] = biological target: 468 kinases (Homo sapiens, UniProt Q96BR1); conditions: SGK3; read-out: % Inhibition @ 100 nM
468 kinases [25] = biological target: 468 kinases (Homo sapiens, UniProt Q96GD4); conditions: AURKB; read-out: % Inhibition @ 100 nM
468 kinases [26] = biological target: 468 kinases (Homo sapiens, UniProt Q96J92); conditions: WNK4; read-out: % Inhibition @ 100 nM
468 kinases [27] = biological target: 468 kinases (Homo sapiens, UniProt Q9H422); conditions: HIPK3; read-out: % Inhibition @ 100 nM
468 kinases [28] = biological target: 468 kinases (Homo sapiens, UniProt Q9NRH2); conditions: SNRK; read-out: % Inhibition @ 100 nM
468 kinases [29] = biological target: 468 kinases (Homo sapiens, UniProt Q9UEE5); conditions: DRAK1; read-out: % Inhibition @ 100 nM
468 kinases [30] = biological target: 468 kinases (Homo sapiens, UniProt Q9UM73, L1196M); conditions: ALK(L1196M); read-out: % Inhibition @ 100 nM
468 kinases [31] = biological target: 468 kinases (Homo sapiens, UniProt Q9UQ88); conditions: CDC2L2; read-out: % Inhibition @ 100 nM
468 kinases [32] = conditions: for Number of kinases inhibited >90%: at 100 nM, of 468 kinases

Row | SMILES | inhibition at 0.1 µM (468 kinases [1]) [%] | inhibition at 0.1 µM (468 kinases [2]) [%] | inhibition at 0.1 µM (468 kinases [3]) [%] | inhibition at 0.1 µM (468 kinases [4]) [%] | inhibition at 0.1 µM (468 kinases [5]) [%] | inhibition at 0.1 µM (468 kinases [6]) [%] | inhibition at 0.1 µM (468 kinases [7]) [%] | inhibition at 0.1 µM (468 kinases [8]) [%] | inhibition at 0.1 µM (468 kinases [9]) [%] | inhibition at 0.1 µM (468 kinases [10]) [%] | inhibition at 0.1 µM (468 kinases [11]) [%] | inhibition at 0.1 µM (468 kinases [12]) [%] | inhibition at 0.1 µM (468 kinases [13]) [%] | inhibition at 0.1 µM (468 kinases [14]) [%] | inhibition at 0.1 µM (468 kinases [15]) [%] | inhibition at 0.1 µM (468 kinases [16]) [%] | inhibition at 0.1 µM (468 kinases [17]) [%] | inhibition at 0.1 µM (468 kinases [18]) [%] | inhibition at 0.1 µM (468 kinases [19]) [%] | inhibition at 0.1 µM (468 kinases [20]) [%] | also measured
1 | CCN(CC)CCNC(=O)c1c(C)[nH]c(/C=C2\C(=O)Nc3ccc(CCO)cc32)c1C [Compound No. 10, (Z)—N-(2-(Diethylamino)ethyl)-5-((5-(2-hydroxyethyl)-2-oxoindolin-3-ylidene)methyl)-2,4-dimethyl-1H-pyrrole-3-carboxamide] | 0 | 29 | 3 | 0 | 12 | 84 | 37 | 0 | 37 | 93.8 | 40 | 0 | 0 | 31 | 0 | 12 | 0 | 0 | 87 | 8 | inhibition at 0.1 µM (468 kinases [21]): 15%; inhibition at 0.1 µM (468 kinases [22]): 10%; inhibition at 0.1 µM (468 kinases [23]): 0%; inhibition at 0.1 µM (468 kinases [24]): 0%; inhibition at 0.1 µM (468 kinases [25]): 20%; inhibition at 0.1 µM (468 kinases [26]): 0%; inhibition at 0.1 µM (468 kinases [27]): 21%; inhibition at 0.1 µM (468 kinases [28]): 12%; inhibition at 0.1 µM (468 kinases [29]): 71%; inhibition at 0.1 µM (468 kinases [30]): 52%; inhibition at 0.1 µM (468 kinases [31]): 1%; % Inhibition @ 100 nM (468 kinases [32]; EGFR(L747-E749del, A750P)): 0%; % Inhibition @ 100 nM (468 kinases [32]; EGFR(L747-S752del, P753S)): 23%; % Inhibition @ 100 nM (468 kinases [32]; EGFR(L747-T751del,Sins)): 37%; % Inhibition @ 100 nM (468 kinases [32]; FLT3(ITD)): 99.3%; % Inhibition @ 100 nM (468 kinases [32]; FLT3(ITD,D835V)): 99.15%; % Inhibition @ 100 nM (468 kinases [32]; FLT3(ITD,F691L)): 100%; Number of kinases inhibited >90% (468 kinases [32]): 28 kinases
2 | CCN(CC)CCNC(=O)c1c(C)[nH]c(/C=C2\C(=O)Nc3ccc(CCC(N)=O)cc32)c1C [Compound No. 16, (Z)-5-((5-(3-Amino-3-oxopropyl)-2-oxoindolin-3-ylidene)methyl)-N-(2-(diethylamino)ethyl)-2,4-dimethyl-1H-pyrrole-3-carboxamide] | 57 | 44 | 0 | 0 | 24 | 55 | 1 | 22 | 4 | 100 | 29 | 17 | 0 | 26 | 0 | 9 | 20 | 0 | 76 | 18 | inhibition at 0.1 µM (468 kinases [21]): 6%; inhibition at 0.1 µM (468 kinases [22]): 20%; inhibition at 0.1 µM (468 kinases [23]): 23%; inhibition at 0.1 µM (468 kinases [24]): 26%; inhibition at 0.1 µM (468 kinases [25]): 34%; inhibition at 0.1 µM (468 kinases [26]): 55%; inhibition at 0.1 µM (468 kinases [27]): 95.3%; inhibition at 0.1 µM (468 kinases [28]): 10%; inhibition at 0.1 µM (468 kinases [29]): 78%; inhibition at 0.1 µM (468 kinases [30]): 31%; inhibition at 0.1 µM (468 kinases [31]): 13%; % Inhibition @ 100 nM (468 kinases [32]; EGFR(L747-E749del, A750P)): 27%; % Inhibition @ 100 nM (468 kinases [32]; EGFR(L747-S752del, P753S)): 5%; % Inhibition @ 100 nM (468 kinases [32]; EGFR(L747-T751del,Sins)): 11%; % Inhibition @ 100 nM (468 kinases [32]; FLT3(ITD)): 97.2%; % Inhibition @ 100 nM (468 kinases [32]; FLT3(ITD,D835V)): 100%; % Inhibition @ 100 nM (468 kinases [32]; FLT3(ITD,F691L)): 100%; Number of kinases inhibited >90% (468 kinases [32]): 33 kinases
